Article PMC4501059, “Responding to the challenge of untreatable gonorrhea: ETX0914, a first-in-class agent with a distinct mechanism-of-action against bacterial Type II topoisomerases” (Scientific Reports, 2015)
Like-named read-outs stand apart in the source and are kept apart here.

How the values were obtained:
[1] = tested on: resistant isolates of S. aureus, S. pneumoniae and N. gonorrhoeae; type: cell-based
[2] = Phase 1 study in healthy volunteers, oral suspension; type: in vivo, human
Description: A Phase 1 multipart study[65] in healthy adult volunteers (informed consent with males and females of non-childbearing potential) with ETX0914 was performed under approval of the AstraZeneca Innovative Medicines Safety Review Board and the United States Food and Drug Administration. ETX0914 was administered orally as an aqueous suspension containing 1% w/v povidone K29–32, 0.2% m/v sodium lauryl sulfate and 0.25% w/v glycerin. In Part A of this study, 48 healthy subjects (ranging in age from 19 to 55 years) under fasting conditions received single ascending doses of 200–4000 mg formulated ETX0914 or placebo (6:2, ETX0914:placebo). In Part B, a second set of 18 healthy subjects (ranging in age from 22 to 48 years) were randomized into two equal dosing cohorts receiving a single dose of either 1500 mg ([…]) or 3000 mg ([…]) of ETX0914 in the fasting state and 30 minutes after a meal. Safety monitoring for both Parts A and B included vital signs, electrocardiogram, continuous telemetry, safety laboratory testing (clinical chemistry, haematology and urinalysis) and adverse events monitoring. Blood samples (1 mL) were collected at 0.5, 1, 1.5, 2, 2.5, 3, 4, 5, 6, 8, 10, 12, 24, 36, 48 and 72 h post dose. Urine samples were collected during−12 to 0 hours pre-dose, and 0 to 4, 4 to 8, 8 to 12, 12 to 24, 24 to 48, and 48 to 72 h post-dose. PK parameters were separately determined for the cohorts in each of the Part A and Part B studies. Concentrations of ETX0914 in the plasma and urine were quantified by LC-MS/MS. Plasma PK parameters were calculated using Phoenix WinNonLin software.
AZD0914 was analyzed in mouse, rat, dog, monkey plasma using a qualified method which was later validated for human plasma analysis. The validated human method is described below and is representative of the approach taken in other species. AZD0914 was determined in human plasma prepared with K2EDTA as an anticoagulant. AZD0914 and an internal standard (^13C2, ^15N2 AZD0914) were extracted from plasma with tert- butyl methyl ether. After evaporating to dryness under a stream of nitrogen, the residue was reconstituted and quantitated by reverse phase HPLC-MS/MS against a standard curve from 1.00 to 5000 ng/ml. Separation was achieved using a gradient which went from 55% to 85% methanol:acetonitrile (1:1) containing 0.2% formic acid as mobile phase B and 0.2% formic acid in water as mobile phase A at a flow rate of 0.60 ml/min through a Phenomonex Gemini C18 column (50 x 2.0 mm column, […]) heated using a Shimadzu CTO-20AC set to 40 °C. AZD0914 was detected in multiple reaction monitoring (MRM) mode by positive ion electrospray ionization using a Sciex API5500 (Toronto, Canada) mass spectrometer. The ion spray voltage was set to 5500 V and turboionspray temperature was 650 °C. AZD0914 was quantitated using the MRM transition 488.2 → 348.2 using a collision energy of 29 eV. The internal standard, (^13C2, ^15N2 AZD0914), was monitored using identical conditions except for the MRM transition of 492.2 → 348.2.

[3] = both sexes, human, plasma, oral, 3000 mg, fasting

C[C@@H]1CN2c3c(cc4c(N5C(=O)OC[C@@H]5C)noc4c3F)CC3(C(=O)NC(=O)NC3=O)[C@H]2[C@H](C)O1 [ETX0914]
susceptibility of GyrB\ParE mutants with reduced novobiocin susceptibility ([1]; S. aureus ARC3445, S. pneumoniae ARC2800): fully susceptible
cross-resistance of NBTI resistant S. aureus mutant ARC2796 ([1]; derived from ARC516): not cross-resistant
increase in AUC with high fat meal ([2]; 3000 mg): > 40%
serious adverse events ([2]; Phase 1, 200–4000 mg): No serious adverse events
mild and non-serious AEs ([2]; Phase 1, reversible in all subjects): transient dysgeusia and headache
AUC [2, 3]: 195 µg·h/mL
Cmax [2, 3]: 22900 ng/mL
Tmax ([2]; both sexes, human, plasma, oral, 3000 mg, fasting, read-out: Tmax): 2.2 h
AUC ([2]; both sexes, human, plasma, oral, 3000 mg, preceded by a high fat meal): 281 µg·h/mL
Cmax ([2]; both sexes, human, plasma, oral, 3000 mg, with food): 24000 ng/mL
Tmax ([2]; both sexes, human, plasma, oral, 3000 mg, with food, read-out: Tmax): 4 h
half-life ([2]; both sexes, human, plasma, oral, 8 to 72 hour post-dose period): 5.2 to 6.25 h
Tmax ([2]; both sexes, human, plasma, po, fasting, 200–4000 mg single oral dose, read-out: median Tmax): 1.5 to 2.26 h
oral dose excreted as parent drug in urine ([2]; both, human, urine, po): Less than 5%
margin of human AUC to NOAEL in dog ([2]; highest 4000 mg dose): 4.8 fold
margin of human AUC to NOAEL in rat ([2]; highest 4000 mg dose): 6.4 fold
margin of human Cmax to NOAEL in dog ([2]; highest 4000 mg dose): 3.7 fold
margin of human Cmax to NOAEL in rat ([2]; highest 4000 mg dose): 4.9 fold
doses at which the efficacious AUC was exceeded ([2]; human AUC0-24h versus dose): > 800 mg
